{
  "source": "ChEMBL document CHEMBL1201862",
  "about": "“PubChem BioAssay data set” (2004)",
  "test_in_all_cases": "inhibition of tumour cell growth, NCI panel, 48 h",
  "key": {"[1]": {"test_system": "HL-60"}, "[2]": {"test_system": "PC-3"}, "[3]": {"test_system": "OVCAR-4"}, "[4]": {"test_system": "HT-29"}, "[5]": {"test_system": "MDA-MB-231"}, "[6]": {"test_system": "KM12"}, "[7]": {"test_system": "SF-539"}, "[8]": {"test_system": "HCT-15"}, "[9]": {"test_system": "SF-295"}, "[10]": {"test_system": "NCI/ADR-RES"}, "[11]": {"test_system": "NCI-H522"}, "[12]": {"test_system": "K562"}, "[13]": {"test_system": "RXF 393"}, "[14]": {"test_system": "U-251"}, "[15]": {"test_system": "UO-31"}, "[16]": {"test_system": "SK-MEL-2"}, "[17]": {"test_system": "SF-268"}, "[18]": {"test_system": "IGROV-1"}, "[19]": {"test_system": "SK-MEL-28"}, "[20]": {"test_system": "SK-OV-3"}, "[21]": {"test_system": "NCI-H460"}, "[22]": {"test_system": "UACC-257"}, "[23]": {"test_system": "SR"}, "[24]": {"test_system": "T47D"}, "[25]": {"test_system": "SNB-19"}, "[26]": {"test_system": "OVCAR-3"}, "[27]": {"test_system": "CCRF-CEM"}, "[28]": {"test_system": "NCI-H226"}, "[29]": {"test_system": "DU-145"}, "[30]": {"test_system": "OVCAR-5"}, "[31]": {"test_system": "A549"}, "[32]": {"test_system": "HCC 2998"}, "[33]": {"test_system": "NCI-H23"}, "[34]": {"test_system": "HOP-62"}, "[35]": {"test_system": "SNB-75"}, "[36]": {"test_system": "COLO 205"}, "[37]": {"test_system": "MDA-N"}, "[38]": {"test_system": "HCT-116"}, "[39]": {"test_system": "ACHN"}, "[40]": {"test_system": "M14"}, "[41]": {"test_system": "A498"}, "[42]": {"test_system": "Hs-578T"}, "[43]": {"test_system": "MDA-MB-435"}, "[44]": {"test_system": "MCF7"}, "[45]": {"test_system": "SW-620"}, "[46]": {"test_system": "Malme-3M"}, "[47]": {"test_system": "MOLT-4"}, "[48]": {"test_system": "SK-MEL-5"}, "[49]": {"test_system": "CAKI-1"}, "[50]": {"test_system": "786-0"}, "[51]": {"test_system": "TK-10"}, "[52]": {"test_system": "UACC-62"}, "[53]": {"test_system": "OVCAR-8"}, "[54]": {"test_system": "RPMI-8226"}, "[55]": {"test_system": "SN12C"}, "[56]": {"test_system": "EKVX"}},
  "note": "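Values below derive from 48-hour exposures of cells grown in 96-well plates, with endpoints linearly interpolated between the two concentrations bracketing the appropriate inhibition level. The concentration for 50% growth inhibition is given as GI50.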 The source made the active and inactive calls. Rule as the data show it: active = GI50 up to about 1.1 µM and inactive = higher.",
  "data": [
    {"smiles": "Cc1cc(C)c(-c2no/c(=N\\S(=O)(=O)c3ccc(Cl)cc3)o2)c(C)c1", "values": [
      {"measurement": "GI50", "setting": "[1]", "result": "42.1 µM (inactive)"},
      {"measurement": "GI50", "setting": "[2]", "result": "> 100 µM (inactive)"},
      {"measurement": "GI50", "setting": "[3]", "result": "> 100 µM (inactive)"},
      {"measurement": "GI50", "setting": "[4]", "result": "> 100 µM (inactive)"},
      {"measurement": "GI50", "setting": "[5]", "result": "> 100 µM (inactive)"},
      {"measurement": "GI50", "setting": "[6]", "result": "57.9 µM (inactive)"},
      {"measurement": "GI50", "setting": "[7]", "result": "> 100 µM (inactive)"},
      {"measurement": "GI50", "setting": "[8]", "result": "> 100", "unit": "µM"},
      {"measurement": "GI50", "setting": "[9]", "result": "> 100 µM (inactive)"},
      {"measurement": "GI50", "setting": "[10]", "result": "87.3 µM (inactive)"},
      {"measurement": "GI50", "setting": "[11]", "result": "28.6 µM (inactive)"},
      {"measurement": "GI50", "setting": "[12]", "result": "49.5 µM (inactive)"},
      {"measurement": "GI50", "setting": "[13]", "result": "> 100 µM (inactive)"},
      {"measurement": "GI50", "setting": "[14]", "result": "> 100 µM (inactive)"},
      {"measurement": "GI50", "setting": "[15]", "result": "> 100 µM (inactive)"},
      {"measurement": "GI50", "setting": "[16]", "result": "34 µM (inactive)"},
      {"measurement": "GI50", "setting": "[17]", "result": "> 100 µM (inactive)"},
      {"measurement": "GI50", "setting": "[18]", "result": "> 100 µM (inactive)"},
      {"measurement": "GI50", "setting": "[19]", "result": "> 100 µM (inactive)"},
      {"measurement": "GI50", "setting": "[20]", "result": "> 100 µM (inactive)"},
      {"measurement": "GI50", "setting": "[21]", "result": "> 100 µM (inactive)"},
      {"measurement": "GI50", "setting": "[22]", "result": "31.1 µM (inactive)"},
      {"measurement": "GI50", "setting": "[23]", "result": "24.7 µM (inactive)"},
      {"measurement": "GI50", "setting": "[24]", "result": "93.3 µM (inactive)"},
      {"measurement": "GI50", "setting": "[25]", "result": "> 100 µM (inactive)"},
      {"measurement": "GI50", "setting": "[26]", "result": "> 100 µM (inactive)"},
      {"measurement": "GI50", "setting": "[27]", "result": "> 100 µM (inactive)"},
      {"measurement": "GI50", "setting": "[28]", "result": "> 100 µM (inactive)"},
      {"measurement": "GI50", "setting": "[29]", "result": "> 100 µM (inactive)"},
      {"measurement": "GI50", "setting": "[30]", "result": "> 100 µM (inactive)"},
      {"measurement": "GI50", "setting": "[31]", "result": "> 100 µM (inactive)"},
      {"measurement": "GI50", "setting": "[32]", "result": "> 100 µM (inactive)"},
      {"measurement": "GI50", "setting": "[33]", "result": "> 100 µM (inactive)"},
      {"measurement": "GI50", "setting": "[34]", "result": "> 100 µM (inactive)"},
      {"measurement": "GI50", "setting": "[35]", "result": "> 100 µM (inactive)"},
      {"measurement": "GI50", "setting": "[36]", "result": "41.4 µM (inactive)"},
      {"measurement": "GI50", "setting": "[37]", "result": "> 100 µM (inactive)"},
      {"measurement": "GI50", "setting": "[38]", "result": "51.1 µM (inactive)"},
      {"measurement": "GI50", "setting": "[39]", "result": "> 100 µM (inactive)"},
      {"measurement": "GI50", "setting": "[40]", "result": "> 100 µM (inactive)"},
      {"measurement": "GI50", "setting": "[41]", "result": "> 100 µM (inactive)"},
      {"measurement": "GI50", "setting": "[42]", "result": "> 100 µM (inactive)"},
      {"measurement": "GI50", "setting": "[43]", "result": "> 100 µM (inactive)"},
      {"measurement": "GI50", "setting": "[44]", "result": "16.4 µM (inactive)"},
      {"measurement": "GI50", "setting": "[45]", "result": "> 100 µM (inactive)"},
      {"measurement": "GI50", "setting": "[46]", "result": "75 µM (inactive)"},
      {"measurement": "GI50", "setting": "[47]", "result": "> 100 µM (inactive)"},
      {"measurement": "GI50", "setting": "[48]", "result": "23.1 µM (inactive)"},
      {"measurement": "GI50", "setting": "[49]", "result": "> 100 µM (inactive)"},
      {"measurement": "GI50", "setting": "[50]", "result": "> 100 µM (inactive)"},
      {"measurement": "GI50", "setting": "[51]", "result": "> 100 µM (inactive)"},
      {"measurement": "GI50", "setting": "[52]", "result": "> 100 µM (inactive)"},
      {"measurement": "GI50", "setting": "[53]", "result": "> 100 µM (inactive)"},
      {"measurement": "GI50", "setting": "[54]", "result": "37.2 µM (inactive)"},
      {"measurement": "GI50", "setting": "[55]", "result": "> 100 µM (inactive)"},
      {"measurement": "GI50", "setting": "[56]", "result": "> 100 µM (inactive)"}
    ]}
  ]
}
